Measurements from US20120077735A1, “PROPHYLACTIC AGENT FOR RENAL FAILURE” (priority 2007, published 2012).

How the values were obtained:
male Wistar rats [1] = experiment: Test 2: rat renal pathologic state (glomerular lesions, renal artery wall at the hilum and small- and mid-sized artery wall thickening) in rats given L-NAME; type: in vivo; conditions: drinking water with L-NAME 1 g/L plus IPP 0.3 g/L or Enalapril 0.5 mg/L, eight weeks; for With pathologic state / Without pathologic state: pathologic state = score not less than 1 in all three items
Description: The tripeptide Ile Pro Pro (IPP) was also tested for renal pathologic state, in order to evaluate its effect to suppress kidney glomerular disease and renal arteriosclerosis.
The test was carried out using three groups of male Wistar rats of seven weeks old (Japan SLC, Inc.), each of which group consist of 9 to 12 rats. After habituation breeding for a week, drinking water with L-NAME (manufactured by Sigma) being dissolved at a concentration of 1 g/L; drinking water with L-NAME and IPP being dissolved at a concentration of 1 g/L and 0.3 g/L respectively; drinking water with L-NAME and angiotensin converting enzyme (ACE) inhibitor, Enalapril at a concentration of 1 g/L and 0.5 mg/L respectively, were supplied ad libitum for eight weeks. The dose of Enalapril was determined such that its activity to inhibit ACE was equivalent to the activity of IPP to inhibit ACE.
The rats were sacrificed by exsanguination under diethylether anesthesia. The kidney was enucleated and then fixed with 10% neutral buffered formalin solution. Tissue samples were prepared from the fixed kidney by excising in parallel with the minor axis such that the tip of renal papilla was included. The specimen were embedded in paraffin and cut into thin sections with a thickness of 2.0 to 2.5 μm using a microtome. Two to five sections per rat were prepared. The thin sliced sections were subjected to hematoxylin eosin staining or periodic acid methenamine silver staining (PAM staining). In accordance with a method by Foglieni et al. (Chiara Foglieni, et al., “Protective effect of EDTA preadministration on renal ischemia” BMC Nephrology 2006, 7:5, [online], Mar. 15, 2006, BioMed Central Ltd, http://www.biomedcentral.com/bmcnephrol/), a histopathological examination was, with keeping the name of each sample concealed, carried out by a pathologist who was not involved in the test.
Under a microscopic observation, the glomerulus that atrophic lesions, deterioration of the glomerulus, glomerulosclerosis, alteration of Bowman's capsule or the like was observed was defined as the glomerulus with lesions, in accordance with the definition of the glomerular lesions described in a book by Enomoto et al. (edited by Makoto Enomoto, Yuzo Hayashi, and Hisako Tanaka, “Pathological tissues of experimental animals”, Softscience, pages 380-396). The atrophic lesion refers to conditions where the size ratio between the glomerulus and Bowman's capsule is altered due to glomerular atrophy. The deterioration of the glomerulus refers to conditions where the blood capillary cavity of the glomerulus is disappeared and glomerular functions are lost. The glomerulosclerosis refers to conditions where increased mesangial matrix was observed without accompanying hyperplasia of collagen fiber. The alteration of Bowman's capsule refers to conditions where hypertrophy of epithelial cells and uptake of lipid droplets and/or protein particles are observed. In one whole section, the frequency of occurrence of these glomerular lesions was scored from 0 to 3, and a score was determined for each individual rat.
Score 0: A case where one or two glomerular lesions owing to physiologic alterations were observed.
Score 1: A case where one or two focal regions in the glomerulus were observed, which regions were a limited and small range.
Score 2: A case where two to four focal regions in the glomerulus were observed, which regions were a middle sized range.
The focal regions herein indicate that a plural of lesions are, on the basis of pathological findings, observed in a certain area in one whole section.
The thickening of the renal artery wall at the hilum existing in the renal medulla and the thickening of the small and middle artery wall existing in the renal cortex were also evaluated by a tissue pathological test in the same manner as the observation of the glomerular lesions. […]

male Wistar rats [2] = experiment: Test 1: frequency of occurrence of renal glomerular lesions in rats given L-NAME; type: in vivo, rat; conditions: drinking water with L-NAME 1 g/L plus VPP 0.3 g/L or Enalapril 0.5 mg/L, ad libitum for eight weeks; compared with L-NAME alone; FIG. 2
Description: (§1) In order to evaluate the effect of the tripeptide Val Pro Pro (VPP) to suppress kidney glomerular disease and renal arteriosclerosis, a test on the frequency of occurrence of renal glomerular lesions and the degree of thickening of the small and middle renal artrey wall was carried out.
(§2) The test was carried out using three groups of male Wistar rats of seven weeks old (Japan SLC, Inc.), each of which group consist of 9 to 12 rats. […] The dose of Enalapril was determined such that its activity to inhibit ACE was equivalent to VPP's. […]
Under a microscopic observation, the glomerulus that atrophic lesions, deterioration of the glomerulus, glomerulosclerosis, alteration of Bowman's capsule or the like was observed was defined as the glomerulus with lesions, in accordance with the definition of the glomerular lesions described in a book by Enomoto et al. (edited by Makoto Enomoto, Yuzo Hayashi, and Hisako Tanaka, “Pathological tissues of experimental animals”, Softscience, pages 380-396). […] In one whole section, the frequency of occurrence of these glomerular lesions was scored from 0 to 3, and a score was determined for each individual rat. The thus determined score for each individual rat was subjected to statistical analysis and a score for each group was determined. […]

male Wistar rats [3] = experiment: Test 1: thickening of the small- and mid-sized renal artery wall in rats given L-NAME; type: in vivo, rat; conditions: drinking water with L-NAME 1 g/L plus VPP 0.3 g/L or Enalapril 0.5 mg/L, ad libitum for eight weeks; compared with L-NAME alone; FIG. 1
Description: as §1, §2
The thickening of the small-, and mid -sized artery wall existing in the renal cortex was also evaluated by a tissue pathological test in the same manner as the observation of the glomerular lesions. […] The thickness of the small- and mid-sized artery wall was scored from 0 to 3 as described below and a score for each individual rat was determined. The determined score for each individual rat was subjected to statistical analysis and a score for each group was determined. […]

| Compound | onset of the pathologic state of the glomerulus and the renal artery (result in words) (male Wistar rats [1]) | With pathologic state (male Wistar rats [1]) [rats] | Without pathologic state (male Wistar rats [1]) [rats] | frequency of occurrence of the glomerular lesions (score 0 to 3) (male Wistar rats [2]) | degree of thickening of the small- and mid-sized artery wall (score 0 to 3) (male Wistar rats [3]) |
| --- | --- | --- | --- | --- | --- |
| Ile Pro Pro [IPP] | suppressed the onset of the pathologic state | 0 | 9 | – | – |
| Val Pro Pro [VPP] | – | – | – | suppression of the frequency of occurrence of the glomerular lesions | decrease in the degree of thickening |
| CCOC(=O)[C@H](CCc1ccccc1)N[C@@H](C)C(=O)N1CCC[C@H]1C(=O)O [Enalapril] | did not exhibit such an effect | 2 | 7 | did not show the suppressive effect | did not show the suppressive effect |
